Experimental data from patent US12653192B2, “Pesticidal compositions” (SYNGENTA CROP PROTECTION AG, priority 2021, dated 2026).
Like-named read-outs stand apart in the source and are kept apart here.

Type: physicochemical
Method: The percentage amount of spiropidion remaining at each time interval during the high temperature storage testing was compared to an identical sample stored at −18° C. (100%=amount of spiropidion in the −18° C. sample at respective time interval).

CCOC(=O)OC1=C(c2c(C)cc(Cl)cc2C)C(=O)N(C)C12CCN(OC)CC2 [Spiropidion, [3-(4-chloro-2,6-dimethyl-phenyl)-8-methoxy-1-methyl-2-oxo-1,8-diazaspiro[4.5]dec-3-en-4-yl]ethyl carbonate]
chemical degradation of the active ingredient spiropidion: only minimal chemical degradation | % Spiropidion remaining (1 month): 99% | % Spiropidion remaining (12 months): 98%
